Laboratory results reported in patent publication US9834548B2, “Pyridazine compounds as JAK inhibitors” (Portola Pharmaceuticals, Inc., priority 2014, dated 2017).

Legend:
Assay type in all cases: biochemical
JAK1 = JAK1 (Homo sapiens (Human), UniProt P23458); experiment: Purified kinase assay (Z'-LYTE), JAK1; settings: Table 1; read-out: JAK1 IC50
Procedure: (§1) JAK and TYK2 tyrosine phosphorylation activity is measured using the Z′-LYTE™ Technology developed by Invitrogen Corporation (Carlsbad, Calif.). For JAK1, JAK2 and JAK3 the Z′-LYTE™ Kinase Assay Kit-Tyr6 Peptide (part number PV4122) was used. For TYK2 the Z′-LYTE™ Kinase Assay Kit-Tyr6 Peptide (part number PV3192) was used. The Z′-LYTE™ biochemical assay employs a fluorescence resonance energy transfer (FRET) coupled-enzyme format and is based on the differential sensitivity of phosphorylated and non-phosphorylated peptides to proteolytic cleavage. The assay uses a synthetic peptide substrate that is labeled with a donor fluorophore (coumarin) and an acceptor fluorophore (fluorescein) that make up a FRET pair. In the primary reaction (the Kinase Reaction), the kinase transfers the γ-phosphate of ATP to a single tyrosine residue on the substrate, while the presence of a kinase inhibitor in the primary reaction suppresses phosphorylation. In the secondary reaction (the Development Reaction), a site-specific protease (the Development Reagent) is added. The development buffer quenches the Kinase Reaction, while the protease recognizes and cleaves non-phosphorylated Z′-LYTE™ peptide substrate. Cleavage disrupts FRET between the donor and acceptor fluorophores on the non-phosphorylated substrate, while uncleaved, phosphorylated substrate maintains FRET.
(§2) To test the ability of candidate molecules to inhibit JAK tyrosine phosphorylation activity, molecules are reconstituted in 100% DMSO and serially diluted 1:10 in polypropylene v-bottom microtiter plates. The candidate molecules are then diluted 1:25 into kinase buffer and 2.5 μl transferred into duplicate wells of a 384 well low volume black microtiter assay plate (Corning, USA). The final DMSO concentration in the assay is 1%. The kinase reaction contains 2.5 μl of a candidate molecule, 5 μl of catalytic domain recombinant Kinase enzyme+Tyr peptide substrate (Invitrogen, CA) and ATP (Invitrogen, CA). The kinase reaction is allowed to proceed for 1 hour at room temperature. The protease reaction is initiated by the addition of Development Reagent (Invitrogen, CA). After 1 hour incubation at room temperature the fluorescence is measured using a FlexStation plate reader (Molecular Devices, Sunnyvale, Calif.). The reader settings used are as follows: Fluorescence mode, endpoint, top read, excitation 400 nm, emission 445 nm and 520 nm, Auto Cutoff 435 nm and 515 nm, PMT sensitivity high, 6 reads per well Inhibition of JAK activity is calculated as the percent phosphorylation of substrate in the presence of inhibitor compared to the percent phosphorylation of substrate in the absence of inhibitor. IC50's were derived using Xlfit 4.3 (IDBS, UK), 4 parameter logistic model 205: Y=(A+((B−A)/(1+((C/x)^D)))).

JAK3 = JAK3 (Homo sapiens (Human), UniProt P52333); experiment: Purified kinase assay (Z'-LYTE), JAK3; settings: Table 1; read-out: JAK3 IC50
Procedure: as §1, §2

JAK2 = JAK2 (Homo sapiens (Human), UniProt O60674); experiment: Purified kinase assay (Z'-LYTE), JAK2; settings: Table 1; read-out: JAK2 IC50
Procedure: as §1, §2

Sequence of JAK2 (O60674 849-1124): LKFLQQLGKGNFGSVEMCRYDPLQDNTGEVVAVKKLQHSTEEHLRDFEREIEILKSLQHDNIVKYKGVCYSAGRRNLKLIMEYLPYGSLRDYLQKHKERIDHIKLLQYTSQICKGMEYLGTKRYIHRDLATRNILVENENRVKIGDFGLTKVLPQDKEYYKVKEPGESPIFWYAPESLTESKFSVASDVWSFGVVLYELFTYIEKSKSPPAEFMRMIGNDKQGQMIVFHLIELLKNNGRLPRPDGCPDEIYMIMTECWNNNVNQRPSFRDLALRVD
Sequence of JAK1 (P23458 875-1153): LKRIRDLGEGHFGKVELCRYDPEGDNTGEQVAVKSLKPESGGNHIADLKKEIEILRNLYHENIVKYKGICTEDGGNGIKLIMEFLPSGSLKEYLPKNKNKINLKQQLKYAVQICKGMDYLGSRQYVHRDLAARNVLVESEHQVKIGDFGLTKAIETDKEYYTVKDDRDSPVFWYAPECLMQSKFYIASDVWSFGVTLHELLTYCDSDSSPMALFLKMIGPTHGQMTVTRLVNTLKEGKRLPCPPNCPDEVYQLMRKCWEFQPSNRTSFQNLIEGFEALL
Sequence of JAK3 (P52333 822-1111): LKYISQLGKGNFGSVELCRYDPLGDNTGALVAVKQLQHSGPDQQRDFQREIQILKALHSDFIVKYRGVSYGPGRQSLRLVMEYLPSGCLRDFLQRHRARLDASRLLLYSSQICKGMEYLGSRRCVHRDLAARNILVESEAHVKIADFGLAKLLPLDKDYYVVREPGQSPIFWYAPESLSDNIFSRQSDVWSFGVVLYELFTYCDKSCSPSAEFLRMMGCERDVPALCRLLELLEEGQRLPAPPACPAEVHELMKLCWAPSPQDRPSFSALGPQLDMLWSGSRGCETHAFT

Row | SMILES | IC50 (JAK1) | IC50 (JAK3) | IC50 (JAK2)
1 | NC(=O)c1nnc(Nc2cnn(CC3CC3)c2)cc1NCc1cccc(F)c1 [Compound 119] | > 1000 nM | 10 to 100 nM | 100 to 1000 nM
2 | COc1ccccc1CNc1cc(Nc2ccc(N3CCN(C(C)=O)CC3)cc2)nnc1C(N)=O [Compound 24] | 100 to 1000 nM | 10 to 100 nM | 10 to 100 nM
3 | N#Cc1ccc(N2CCC(Nc3cc(Nc4cnccn4)nnc3C(N)=O)CC2)nc1 [Compound 97] | 1 to 10 nM | 1 to 10 nM | 1 to 10 nM
4 | CS(=O)(=O)Cc1ccc(Nc2cc(NCc3cccc(-c4ccncc4)c3)c(C(N)=O)nn2)cc1 [Compound 132] | > 1000 nM | 10 to 100 nM | > 1000 nM
5 | NC(=O)c1nnc(Nc2ccc(N3CCOCC3)cc2)cc1NCc1cc(F)ccc1F [Compound 37] | > 1000 nM | 10 to 100 nM | 10 to 100 nM
6 | CC(C)n1cc(Nc2cc(NCc3cccc(F)c3)c(C(N)=O)nn2)cn1 [Compound 106] | > 1000 nM | 10 to 100 nM | 100 to 1000 nM
7 | Cn1ccc(Nc2cc(NCc3cccc(F)c3)c(C(N)=O)nn2)n1 [Compound 67] | > 1000 nM | 10 to 100 nM | 100 to 1000 nM
8 | CCC(=O)N1CCN(c2ccc(Nc3cc(NCc4cccc(F)c4F)c(C(N)=O)nn3)cc2)CC1 [Compound 34] | > 1000 nM | 1 to 10 nM | 10 to 100 nM
9 | CC(=O)N1CCN(c2ccc(Nc3cc(NCc4ccccc4F)c(C(N)=O)nn3)nc2)CC1 [Compound 28] | 100 to 1000 nM | 1 to 10 nM | 10 to 100 nM
10 | CC(=O)N1CCN(c2ccc(Nc3cc(NCc4cccc(C#N)c4)c(C(N)=O)nn3)cc2)CC1 [Compound 72] | > 1000 nM | 10 to 100 nM | 100 to 1000 nM
11 | NC(=O)c1nnc(Nc2cnn(CC3CC3)c2)cc1NCc1cccc(F)c1F [Compound 118] | 100 to 1000 nM | 10 to 100 nM | 100 to 1000 nM
12 | NC(=O)c1nnc(Nc2cnn(C3CCCC3)c2)cc1NCc1cccc(F)c1F [Compound 116] | > 1000 nM | 10 to 100 nM | 100 to 1000 nM
13 | NC(=O)c1nnc(Nc2ccc(C(=O)N3CCCC3)c(Cl)c2)cc1NCc1cccc(F)c1 [Compound 55] | > 1000 nM | 10 to 100 nM | 100 to 1000 nM
14 | CC(=O)N(C)c1ccc(Nc2cc(NCc3cccc(F)c3)c(C(N)=O)nn2)cc1 [Compound 101] | > 1000 nM | 100 to 1000 nM | 100 to 1000 nM
15 | NC(=O)c1nnc(Nc2cnn(CC3CCOCC3)c2)cc1NCc1cccc(F)c1F [Compound 124] | > 1000 nM | 1 to 10 nM | 100 to 1000 nM
16 | CN(c1ccc(Nc2cc(NCc3cccc(F)c3)c(C(N)=O)nn2)cc1)S(C)(=O)=O [Compound 102] | > 1000 nM | 10 to 100 nM | 100 to 1000 nM
17 | CC(=O)N1CCN(c2ccc(Nc3cc(NCC4CCC4)c(C(N)=O)nn3)cc2)CC1 [Compound 16] | > 1000 nM | 10 to 100 nM | 100 to 1000 nM
18 | CS(=O)(=O)Cc1ccc(Nc2cc(NCc3cccc(F)c3)c(C(N)=O)nn2)cc1 [Compound 85] | 100 to 1000 nM | 10 to 100 nM | 100 to 1000 nM
19 | NC(=O)c1nnc(Nc2ccc(OCCN3CCCC3)cc2)cc1NCc1cccc(F)c1 [Compound 51] | > 1000 nM | 10 to 100 nM | 100 to 1000 nM
20 | CN(C)C(=O)N1CCC(Cn2cc(Nc3cc(NCc4cccc(F)c4F)c(C(N)=O)nn3)cn2)CC1 [Compound 133] | > 1000 nM | 1 to 10 nM | 100 to 1000 nM
21 | NC(=O)c1nnc(Nc2ccc3c(c2)CS(=O)(=O)C3)cc1NCc1cccc(F)c1 [Compound 107] | > 1000 nM | 10 to 100 nM | 100 to 1000 nM
22 | NC(=O)c1nnc(Nc2ccc(C(=O)N3CCOCC3)cc2)cc1NCc1cccc(F)c1 [Compound 80] | > 1000 nM | 10 to 100 nM | 100 to 1000 nM
23 | CCC(=O)N1CCC(c2ccc(Nc3cc(NCc4cc(F)cc(F)c4)c(C(N)=O)nn3)cc2)CC1 [Compound 27] | > 1000 nM | 10 to 100 nM | > 1000 nM
24 | CC(=O)N1CCN(c2ccc(Nc3cc(NCc4ccc(Cl)s4)c(C(N)=O)nn3)cc2)CC1 [Compound 76] | > 1000 nM | 10 to 100 nM | > 1000 nM

Row | SMILES | IC50 (JAK1) | IC50 (JAK3) | IC50 (JAK2)
25 | CC(=O)N1CCN(c2ccc(Nc3cc(NCC4CCNCC4)c(C(N)=O)nn3)cc2)CC1 [Compound 63] | > 1000 nM | 100 to 1000 nM | > 1000 nM
26 | CC(=O)N1CCN(c2ccc(Nc3cc(NCc4cccc(C)c4)c(C(N)=O)nn3)cc2)CC1 [Compound 47] | > 1000 nM | 10 to 100 nM | 100 to 1000 nM
27 | CS(=O)(=O)Cc1cccc(Nc2cc(NCc3cccc(F)c3)c(C(N)=O)nn2)c1 [Compound 91] | > 1000 nM | 10 to 100 nM | > 1000 nM
28 | CC(C)n1cc(Nc2cc(NCc3c(F)cccc3F)c(C(N)=O)nn2)cn1 [Compound 113] | 100 to 1000 nM | 1 to 10 nM | 10 to 100 nM
29 | CC(=O)N1CCN(c2ccc(Nc3cc(NCC(C)C)c(C(N)=O)nn3)cc2)CC1 [Compound 14] | > 1000 nM | 100 to 1000 nM | 100 to 1000 nM
30 | NC(=O)c1nnc(Nc2ncc(C(=O)N3CCOCC3)s2)cc1NCc1cccc(F)c1 [Compound 77] | > 1000 nM | 10 to 100 nM | > 1000 nM
31 | CN(C)C(=O)C1CCN(c2ccc(Nc3cc(NCc4ccccc4F)c(C(N)=O)nn3)cc2)CC1 [Compound 86] | > 1000 nM | 10 to 100 nM | 100 to 1000 nM
32 | CC(=O)N1CCN(c2ccc(Nc3cc(NCc4cccc(-c5cccnc5)c4)c(C(N)=O)nn3)cc2)CC1 [Compound 70] | > 1000 nM | 10 to 100 nM | 100 to 1000 nM
33 | CCC(=O)N1CCC(Cn2cc(Nc3cc(NCc4cccc(F)c4F)c(C(N)=O)nn3)cn2)CC1 [Compound 129] | 100 to 1000 nM | 1 to 10 nM | 100 to 1000 nM
34 | NC(=O)c1nnc(Nc2ccc(N3CCOCC3)cc2)cc1NCc1c(F)cccc1F [Compound 39] | 100 to 1000 nM | 1 to 10 nM | 10 to 100 nM
35 | CCC(=O)N1CCN(c2ccc(Nc3cc(NCc4cc(F)ccc4F)c(C(N)=O)nn3)cc2)CC1 [Compound 32] | > 1000 nM | 1 to 10 nM | 10 to 100 nM
36 | NC(=O)c1nnc(Nc2cnn(C3CCCC3)c2)cc1NCc1cccc2ccsc12 [Compound 115] | > 1000 nM | 10 to 100 nM | 10 to 100 nM
37 | NC(=O)c1nnc(Nc2ccc(N3CCNCC3)cc2)cc1NCc1cccs1 [Compound 22] | > 1000 nM | 10 to 100 nM | > 1000 nM
38 | CS(=O)(=O)Cc1ccc(Nc2cc(NCc3cc(F)ccc3F)c(C(N)=O)nn2)cc1 [Compound 88] | 100 to 1000 nM | 1 to 10 nM | 100 to 1000 nM
39 | NC(=O)c1nnc(Nc2ccc(N3CCOCC3)c(F)c2)cc1NCc1cccc(F)c1F [Compound 43] | > 1000 nM | 10 to 100 nM | > 1000 nM
40 | CCC(=O)N1CCC(c2ccc(Nc3cc(NCc4ccccc4F)c(C(N)=O)nn3)cc2)CC1 [Compound 25] | > 1000 nM | 10 to 100 nM | > 1000 nM
41 | CCn1cc(Nc2cc(NCc3cccc4ccsc34)c(C(N)=O)nn2)cn1 [Compound 122] | 100 to 1000 nM | 1 to 10 nM | 10 to 100 nM
42 | NC(=O)c1nnc(Nc2ccc(N3CCNCC3)cc2)cc1NC1CCCC1 [Compound 13] | > 1000 nM | 100 to 1000 nM | 100 to 1000 nM
43 | CC(C)(c1ccc(Nc2cc(NCc3cccc(F)c3)c(C(N)=O)nn2)cc1)S(C)(=O)=O [Compound 95] | > 1000 nM | 10 to 100 nM | 100 to 1000 nM
44 | NC(=O)c1nnc(Nc2ccc(N3CCNCC3)cc2)cc1NCC1CCC1 [Compound 17] | > 1000 nM | 100 to 1000 nM | > 1000 nM
45 | NC(=O)c1nnc(Nc2ccc(C(=O)N3CCCC3)cn2)cc1NCc1cccc(F)c1 [Compound 73] | 100 to 1000 nM | 1 to 10 nM | 10 to 100 nM
46 | CCC(=O)N1CCN(c2ccc(Nc3cc(NCc4cccc(F)c4)c(C(N)=O)nn3)cc2)CC1 [Compound 30] | > 1000 nM | 10 to 100 nM | 100 to 1000 nM
47 | NC(=O)c1nnc(Nc2cnn(CC3CC3)c2)cc1NCc1cccc2ccsc12 [Compound 117] | 100 to 1000 nM | 10 to 100 nM | 10 to 100 nM
